This note sets out measurements from patent US20220062291A1, “COMPOSITIONS AND METHODS OF TREATING CANCERS BY ADMINISTERING A PHENOTHIAZINE-RELATED DRUG THAT ACTIVATES PROTEIN PHOSPHATASE 2A (PP2A) WITH REDUCED INHIBITORY ACTIVITY TARGETED TO THE DOPAMINE D2 RECEPTOR AND ACCOMPANYING TOXICITY” (DANA-FARBER CANCER INSTITUTE, INC., priority 2018, published 2022).

The structures appear in SMILES notation.

One data set is described as follows: in vivo. The conditions noted are these: female, mouse, po.
Data set [1] deals with KOPT-K1 cells. In words: Cell cycle status by PI flow cytometry. It counts as cell-based, human. The conditions noted are these: 24 hours. Here is the method:
Relative DNA content of cells in each of the samples was determined by measuring PI (propidium iodide) staining using flow cytometry. The results are illustrated in FIG. 31A-FIG. 31B.
Relative DNA content of cells in each of the samples was determined as described above.
Background: Flow cytometry measures light scatter and fluorescence of single cells or particles in a stream.

Data set [2] concerns the target T1, PP2A subunits in KOPT-K1 cell lysates (Homo sapiens, UniProt P30153+P67775+Q16537).
T1 construct: are endogenously expressed by KOPTK1 cells; endogenous in cells; host or cells: KOPT-K1 T-ALL cells / lysates
In words: Cellular thermal shift assay (CETSA), PP2A subunits. It counts as binding. The conditions noted are these: PPZ at 10 μM, one hour. The text has this: The cell lysates were then ultra-centrifuged to precipitate the aggregated pool of the protein, followed by quantification of the remaining soluble protein fraction by immunoblotting with antibodies specific to each of the PP2A subunits.
A similar experiment was set up to examine target engagement specificity of iPAP1 to PP2A subunits in KOPT-K1 cells (FIG. 18G-FIG. 18L). […] A western blot of the KOPT-K1 cell lysates is illustrated in FIG. 19B.

The subject of data set [3] is T-ALL cells isolated from Tg(rag2:Myc; rag2:EGFP) zebrafish. In words: Zebrafish embryos transplanted with T-ALL cells, GFP-positive leukemic area. It counts as in vivo. The text has this: (n=10) N.S.; not significant, **P<0.01 and ****P<0.0001 by two-tailed Welch's t-test.
For data set [4], the target named is T2, PP2A (purified PPP2R1A, PPP2CA and PPP2R5E subunits) (Homo sapiens, UniProt P30153+P67775+Q16537).
T2 construct: made in house; host or cells: Hi5 insect cells (baculovirus, pAC8 vectors; virus produced in Sf9)
In words: PP2A Immunoprecipitation Phosphatase Assay with purified subunits. It counts as biochemical. Here is the method: The data is presented as mean±s.d. (n=3, biological replicates). *P<0.05 by student's t-test.
Phosphatase activity of PP2A was measured using the PP2A Immunoprecipitation Phosphatase Assay Kit (Merck Millipore®) (FIG. 21A-FIG. 21B). […] The proteins were subsequently incubated with protein A agarose slurry and 4 μg of anti-PPP2CA antibody (Merck Millipore®, #05-421, clone 1D6) at 4° C. with constant rocking for one hour. Agarose-bound immune complexes were collected, then washed with 700 μl TBS (3 times) and 500 μl Ser/Thr buffer (final wash), before resuspending them in 20 μl Ser/Thr buffer. A phosphopeptide (amino acid sequence: K-R-pT-I-R-R) was added as a substrate for PPP2CA, and samples were incubated at 30° C. in a shaking incubator for 10 minutes. Supernatants (25 μl) were then transferred onto 96-well plate, and released phosphate was measured by adding 100 μl malachite green phosphate detection solution. Absorbance was read by SpectraMax® M5 Multi-Mode Microplate Reader (Molecular Devices LLC) at 650 nm. Phosphate concentrations were calculated from a standard curve generated from serial dilutions of standard phosphate solution (0-2,000 pmol).

In data set [5] the target is tubulin from porcine brain (Sus scrofa, UniProt P02550+P02554). In words: Fluorescence-based tubulin polymerization assay. The conditions noted are these: concentrations of up to 2.5 or 5 μM.
Method: Briefly, free tubulin (2 mg/mL) in buffer supplemented with 1 mM GTP and 15% glycerol was employed. Then, the test compounds were added to tubulin solution and changes in the fluorescence intensity (ex=370 nm, em=445 nm) were measured by kinetic reading at 37° C. using SpectraMax® M5 Microplate reader (Molecular Devices LLC).
Data set [6] relates to KOPT-K1, SUPT-13 and RPMI-8402 cells. In words: Dose-response viability in three T-ALL cell lines, 72 hours. Type of data set: cell-based, human. The method, then: Viable cells are shown on the Y axis as a percent of the DMSO control cells. Data are presented as means±s.d. (n=3). Data are presented as means±s.d. […] The IC50 for iPAP1 is 200 to 400 nM for these cell lines.
(Perrotti and Neviani, Cancer Metastasis Rev. 27(2):159-68 (2008); Sangodkar et al., J. Clin. Invest. 127(6):2081-2090 ([…])). […] Data are presented as means±s.d.

Data set [7] is described as follows: Peripheral blood platelet counts. The conditions noted are these: 80 mg/kg/day intraperitoneally, seven consecutive days. It counts as in vivo, C57BL/6J mice. The method, then: The peripheral blood platelet counts in C57BL/6J mice treated with either by DMSO or iPAP1 at 80 mg/kg/day intraperitoneally for seven consecutive days, were measured. […] Other blood cell counts were unchanged in treated compared to control mice. iPAP1 treatment of mice increased the platelet count, due to effects of the compound on endoreduplication of megakaryocytes.

Data set [8] deals with KOPT-K1 cells. In words: KOPT-K1 cell viability (PrestoBlue), IC50 after 72 hours. It counts as cell-based, human. The method, then:
For IC50 calculation, KOPT-K1 cells were treated with each of the compounds at various concentrations for 72 hours, followed by the determination of viable cell numbers with PrestoBlue® cell viability reagent. For the PP2A phosphatase activity assay, KOPT-K1 cells were treated with each of the compounds at 10 μM for 3 hours before phosphatase activity was measured. Dopamine D2 receptor activity was monitored in HEK293T cells coexpressing the dopamine D2 receptor, modified G protein and SRE luciferase reporter. Cells were treated with each of the compound at 10 μM for 3 hours, then lysed for the luciferase reporter assay.
For IC50 calculations, KOPT-K1 cells were treated with each of the compound at various concentrations for 72 hours, then their viability was examined by PrestoBlue® Cell Viability Reagent (Thermo Fisher Scientific). For PP2A phosphatase activity assay, KOPT-K1 cells were treated with each of the compound at 10 μM for three hours before the activity of PP2A was quantified using PP2A Immunoprecipitation Phosphatase Assay Kit (Merck Millipore®). DRD2 activity was monitored in HEK293T cells expressing DRD2, modified G protein and SRE luciferase reporter. Cells were treated with each of the compounds at 10 μM for three hours, then lysed for luciferase reporter assay. […] The biochemical assays were performed as indicated in Examples 7 and 8.

T2 sequence (P30153 whole entry): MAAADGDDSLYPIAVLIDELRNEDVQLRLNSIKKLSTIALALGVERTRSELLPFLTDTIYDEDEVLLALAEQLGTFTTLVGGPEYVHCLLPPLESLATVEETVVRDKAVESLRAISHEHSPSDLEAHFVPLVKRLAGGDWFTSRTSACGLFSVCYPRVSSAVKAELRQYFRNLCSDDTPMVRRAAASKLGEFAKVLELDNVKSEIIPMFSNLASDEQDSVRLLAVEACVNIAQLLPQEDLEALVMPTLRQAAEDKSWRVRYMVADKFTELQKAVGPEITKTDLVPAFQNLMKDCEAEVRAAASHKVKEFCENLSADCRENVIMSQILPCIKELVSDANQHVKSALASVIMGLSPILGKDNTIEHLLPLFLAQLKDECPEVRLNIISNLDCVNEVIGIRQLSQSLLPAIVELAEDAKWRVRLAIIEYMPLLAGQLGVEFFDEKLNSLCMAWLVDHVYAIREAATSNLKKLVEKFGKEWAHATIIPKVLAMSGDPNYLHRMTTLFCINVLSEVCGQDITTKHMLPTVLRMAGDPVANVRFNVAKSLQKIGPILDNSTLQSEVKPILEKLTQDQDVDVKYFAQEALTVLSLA
T2 sequence (P67775 whole entry): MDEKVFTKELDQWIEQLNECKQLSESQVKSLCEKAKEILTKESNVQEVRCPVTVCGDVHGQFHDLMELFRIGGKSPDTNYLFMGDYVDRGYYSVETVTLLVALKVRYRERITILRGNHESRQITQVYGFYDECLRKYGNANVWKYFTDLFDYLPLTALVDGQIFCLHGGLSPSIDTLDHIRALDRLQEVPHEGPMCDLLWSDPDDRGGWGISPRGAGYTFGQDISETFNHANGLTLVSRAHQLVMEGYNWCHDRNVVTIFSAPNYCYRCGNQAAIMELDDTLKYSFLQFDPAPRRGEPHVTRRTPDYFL
T2 sequence (Q16537 whole entry): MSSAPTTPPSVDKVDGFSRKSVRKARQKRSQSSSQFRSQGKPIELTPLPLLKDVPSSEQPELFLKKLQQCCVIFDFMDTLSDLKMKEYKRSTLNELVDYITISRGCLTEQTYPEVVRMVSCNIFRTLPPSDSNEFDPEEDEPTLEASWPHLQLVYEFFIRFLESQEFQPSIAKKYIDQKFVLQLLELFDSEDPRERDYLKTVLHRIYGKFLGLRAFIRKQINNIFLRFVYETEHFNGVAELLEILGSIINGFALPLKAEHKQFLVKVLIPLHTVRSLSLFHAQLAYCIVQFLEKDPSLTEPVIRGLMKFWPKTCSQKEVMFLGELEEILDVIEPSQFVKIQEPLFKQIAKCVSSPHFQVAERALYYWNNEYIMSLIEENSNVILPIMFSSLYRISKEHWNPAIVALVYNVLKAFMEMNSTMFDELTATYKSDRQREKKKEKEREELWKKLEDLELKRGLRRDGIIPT
T1 sequence (P30153 whole entry): as the sequence (P30153 whole entry) above
T1 sequence (P67775 whole entry): as the sequence (P67775 whole entry) above
T1 sequence (Q16537 whole entry): as the sequence (Q16537 whole entry) above
Chain of tubulin from porcine brain (P02550 whole entry): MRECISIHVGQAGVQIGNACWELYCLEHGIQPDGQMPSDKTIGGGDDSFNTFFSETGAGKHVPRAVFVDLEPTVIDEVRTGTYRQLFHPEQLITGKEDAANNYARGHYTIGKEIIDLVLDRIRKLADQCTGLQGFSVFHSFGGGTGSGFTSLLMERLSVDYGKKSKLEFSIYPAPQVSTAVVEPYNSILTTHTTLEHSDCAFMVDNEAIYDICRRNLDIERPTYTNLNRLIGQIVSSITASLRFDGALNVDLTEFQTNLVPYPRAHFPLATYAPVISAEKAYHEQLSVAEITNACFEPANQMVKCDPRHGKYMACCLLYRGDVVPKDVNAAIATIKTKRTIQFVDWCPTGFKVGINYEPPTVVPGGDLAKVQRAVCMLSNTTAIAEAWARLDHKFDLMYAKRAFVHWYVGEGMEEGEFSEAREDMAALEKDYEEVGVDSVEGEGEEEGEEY
Chain of tubulin from porcine brain (P02554 whole entry): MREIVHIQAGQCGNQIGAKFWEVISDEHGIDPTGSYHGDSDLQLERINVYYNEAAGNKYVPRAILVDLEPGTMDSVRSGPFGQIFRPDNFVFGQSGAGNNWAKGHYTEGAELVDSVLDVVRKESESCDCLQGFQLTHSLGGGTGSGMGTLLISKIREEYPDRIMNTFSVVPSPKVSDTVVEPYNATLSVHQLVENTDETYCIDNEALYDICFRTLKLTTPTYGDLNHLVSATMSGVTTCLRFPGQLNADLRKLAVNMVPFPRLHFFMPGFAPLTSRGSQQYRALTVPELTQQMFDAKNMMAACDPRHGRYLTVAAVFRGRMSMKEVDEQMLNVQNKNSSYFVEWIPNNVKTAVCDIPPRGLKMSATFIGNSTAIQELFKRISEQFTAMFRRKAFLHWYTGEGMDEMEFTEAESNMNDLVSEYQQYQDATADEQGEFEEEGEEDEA
Method for in vivo: PPZ and iPAP1 were each given per orally to eight-week-old female C57BL/6 mice every 24 hours (n=3 for each cohort). The mice were monitored for four recognized types of dopamine receptor D2 mediated toxicity, namely: i) general activity; ii) reactivity to touch; iii) fear/startle to sound; and iv) tone of abdominal muscle. Behavioral monitoring was done at 15 minutes, 1 hour, 4 hours and 24 hours after each treatment. PPZ and iPAP1 were each administered at 0, 2.5, 5, 10, 20 and 40 mg/kg body weight/dose, and iPAP1 was also administered at 80 mg/kg body weight/dose.

As for `OCCN1CCN(CCCN2c3ccccc3Sc3ccc(Cl)cc32)CC1` [PPZ, perphenazine, reference compound], the MTD at 1 week in “in vivo” stood at 2.5 mg/kg. The cell cycle status entry in the data set with KOPT-K1 cells [1] (10 μM and 20 μM) is recorded as “induced significant G2/M phase arrest”. Also, the “thermal stabilization of PP2A subunits” value in data set [2] was “significantly enhanced stabilization of PPP2R1A, PPP2CA and PPP2R5E”. In addition, in data set [3] (5 μM, five days), the “activity against T-ALL (GFP signal)” value is listed as “some activity against T-ALL with reduced GFP signal”. Besides, the “phosphatase activity of PP2A assembled from purified PPP2R1A, PPP2CA and PPP2R5E” value in data set [4] (one hour at room temperature) was “Phosphatase activity increased with increasing concentrations of PPZ”.
For orientation: IC50 means the concentration that inhibits the measured activity by half. Regarding `COc1ccc(C(=O)N2c3ccccc3Sc3ccc(Cl)cc32)cc1` [iPAP1], in the data set with KOPT-K1 cells [1] (1 μM and 2 μM), the cell cycle status entry is reported as “induced significant G2/M phase arrest”. Also, the “inhibition of tubulin polymerization” value in [5] is on record as “inhibition of tubulin polymerization was not detected”. Besides, the “thermal stabilization of PP2A subunits” value in [2] was “protection of the PP2A subunits from thermal degradation similar to PPZ”. The “reduction of the GFP signal more than PPZ” value in data set [3] (2 μM iPAP1 vs 5 μM PPZ, five days) is given as “at least 5 fold”. Besides, in data set [3] (serial dosage), the GFP-positive leukemic area entry is reported as “dose dependent increased T-ALL cell killing”. The half-inhibitory concentration (IC50) in data set [6] (Homo sapiens, KOPT-K1, SUPT-13 and RPMI-8402, 72 hours) was 200 to 400 nM. Further, the “more active than SMAP against T-ALL cells based on the IC50” value in data set [6] (SUPT-13, KOPT-K1 and RPMI-8402) is recorded as roughly 5 fold. Besides, in data set [7], the “other blood cell counts” value is listed as “unchanged” and the “peripheral blood platelet counts” value is given as “significantly increased the platelet counts”. Besides, in data set [4] (one hour at room temperature), the “phosphatase activity of PP2A assembled from purified PPP2R1A, PPP2CA and PPP2R5E” value is “the phosphatase activity of PP2A was increased upon iPAP1 treatment”. The “PP2A activated at lower molar concentrations than PPZ” value in [4] (purified subunits) was roughly 10 fold. For the same compound, the “equivalent PP2A activation activity at lower concentrations compared to PPZ” value in data set [4] (purified subunits 200 ng each, one hour at room temperature) was roughly 10 times. The IC50 with KOPT-K1 cells [8] (Homo sapiens, KOPTK1, 72 h, 72 hours, PrestoBlue, read-out: IC50 value against KOPT-K1 cells) is roughly 400 nM. Further, the “more active than PPZ for mediating T-ALL cell killing” value in the data set with KOPT-K1 cells [8] (KOPT-K1, 72 hours) came out at 10 times.
